In US8263585B2, “Organic compounds” (Novartis AG, priority 2007, dated 2012):

biological target: T1, human PI 3-Kγ (Homo sapiens, UniProt P48736); assay: in vitro kinase assay (Scintillation Proximity Assay): transfer of terminal phosphate of ATP to phosphatidylinositol; assay type: biochemical; settings: recombinant GST-p110γ, 12.5 μM ATP assay mix, 60 minutes room temperature
T1 construct: Residues 38-1102 of human PI 3-Kγ are subcloned; made in house; host or cells: Sf9 (Spodoptera frugiperda) insect cells, baculovirus
T1 sequence (P48736 38-1102): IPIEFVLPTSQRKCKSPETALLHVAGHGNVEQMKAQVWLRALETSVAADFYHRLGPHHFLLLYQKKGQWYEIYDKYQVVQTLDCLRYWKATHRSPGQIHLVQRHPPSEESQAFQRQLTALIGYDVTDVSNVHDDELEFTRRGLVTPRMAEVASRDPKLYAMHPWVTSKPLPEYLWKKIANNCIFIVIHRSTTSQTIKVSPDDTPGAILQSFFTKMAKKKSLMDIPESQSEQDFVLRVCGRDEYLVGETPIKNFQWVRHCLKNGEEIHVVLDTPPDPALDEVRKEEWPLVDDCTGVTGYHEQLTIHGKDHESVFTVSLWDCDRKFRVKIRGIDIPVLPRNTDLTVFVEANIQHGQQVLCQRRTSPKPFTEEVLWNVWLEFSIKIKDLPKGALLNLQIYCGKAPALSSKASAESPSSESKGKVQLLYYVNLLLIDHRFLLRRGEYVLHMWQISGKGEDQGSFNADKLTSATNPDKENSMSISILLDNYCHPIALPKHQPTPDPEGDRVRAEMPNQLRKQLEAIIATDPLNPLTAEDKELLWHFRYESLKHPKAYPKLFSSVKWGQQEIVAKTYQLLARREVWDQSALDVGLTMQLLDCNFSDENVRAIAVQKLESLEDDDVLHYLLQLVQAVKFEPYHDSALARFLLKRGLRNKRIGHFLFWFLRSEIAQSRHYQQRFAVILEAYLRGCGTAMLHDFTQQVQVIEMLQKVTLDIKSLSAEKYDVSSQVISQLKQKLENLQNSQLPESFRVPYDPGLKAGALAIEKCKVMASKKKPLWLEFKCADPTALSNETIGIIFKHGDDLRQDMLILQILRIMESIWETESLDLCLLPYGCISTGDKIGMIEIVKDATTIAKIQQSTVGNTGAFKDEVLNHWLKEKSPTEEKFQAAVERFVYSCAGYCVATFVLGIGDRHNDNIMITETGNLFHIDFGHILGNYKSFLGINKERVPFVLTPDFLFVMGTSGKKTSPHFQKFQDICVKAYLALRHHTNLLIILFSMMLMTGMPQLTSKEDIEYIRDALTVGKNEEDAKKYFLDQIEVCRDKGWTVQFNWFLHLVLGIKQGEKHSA
Excerpt: Baculovirus expressing different fragments of human PI 3-Kγ fused to glutathione S-transferase (GST) have been previously described by Stoyanova, S., Bulgarelli-Leva, G., Kirsch, C., Hanck, T., Klinger, R., Wetzker, R., Wymann, M. P. (1997) Lipid- and protein kinase activities of G protein-coupled PI 3-kinase g: structure-activity analysis and interactions with wortmannin. Biochem. J., 324:489. Residues 38-1102 of human PI 3-Kγ are subcloned into the BamH1 and EcoR1 sites of the transfer vector pAcG2T (Pharmingen) to create a GST-PI 3-Kγ lacking the first 37 residues of PI 3-Kγ. To express the recombinant protein, Sf9 (Spodoptera frugiperda 9) insect cells are routinely maintained at densities between 3×10^5 and 3×10^6 cells/ml in serum containing TNMFH medium (Sigma). Sf9 cells, at a density of 2×10^6 are infected with human […] baculovirus at a multiplicity of infection (m.o.i.) of 1 for 72 hours. The infected cells are harvested by centrifugation at 1400 g for 4 minutes at 4° C. and the cell pellets are frozen at −80° C. Both Sf9 and Sf21 cells work equally well. Sf9 cells (1×10^9) are resuspended in 100 ml cold (4° C.) lysis buffer (50 mM Tris-HCl pH 7.5, 1% Triton X-100, 150 mM NaCl, 1 mM NaF, 2 mM DTT and protease inhibitors. Cells are incubated on ice for 30 minutes then centrifuged at 15000 g for 20 minutes at 4° C. Purification of the supernatant sample is carried out at 4° C. by affinity chromatography using SEPHAROSE™ agarose gel beads coupled to glutathione (from Amersham Pharmacia Biotech). A cell lysate/GST resin ratio of 50:1 is used. The GST resin is firstly pre-rinsed to remove ethanol preservative and then equilibrated with lysis buffer. Cell lysate (supernatant) is added (usually as 50 ml lysate to 1 ml GST resin in 50 ml tubes) and gently rotated on a mixer at 4° C. for 2-3 hours. The unbound flow through sample is collected by centrifugation at 1000 g for 5 minutes at 4° C. using a DENLEY™ centrifuge. The 1 ml GST resin containing bound material is transferred to a 15 ml FALCON™ centrifuge tube for subsequent washing and elution steps. Firstly a series of 3 cycles of washings (mixing by gentle inversion) is performed with 15 ml ice cold wash Buffer A (50 mM Tris-HCl pH 7.5, 1% Triton X-100, 2 mM DTT) interspersed with centrifugation at 1000 g for 5 minutes at 4° C. A final single wash step is performed with 15 ml ice cold wash Buffer B (50 mM Tris-HCl pH 7.5, 2 mM DTT) and then centrifuged at 1050 g for 5 minutes at 4° C. The washed GST resin is finally eluted with 4 cycles of 1 ml ice cold elution buffer (50 mM Tris-HCl pH 7.5, 10 mM reduced glutathione, 2 mM DTT, 150 mM NaCl, 1 mM NaF, 50% ethylene glycol and protease inhibitors) interspersed with centrifugation at 1000 g for 5 minutes at 4° C. Samples are aliquoted and stored at −20° C.
An in vitro kinase assay was established that measures the transfer of the terminal phosphate of adenosine triphosphate to phosphatidylinositol. The kinase reaction is performed in a white 96 well microtitre plate as a Scintillation Proximity Assay. Each well contains 10 μl test compound in 5% dimethylsulphoxide and 20 μl assay mix (40 mM Tris, 200 mM NaCl, 2 mM ethyleneglycol-aminoethyl-tetraacetic acid (EGTA), 15 μg/ml phosphatidylinositol, 12.5 μM adenosine triphosphate (ATP), 25 mM MgCl2, 0.1 μCi [^33P]ATP). The reaction is started by the addition of 20 μl of enzyme mix (40 mM Tris, 200 mM NaCl, 2 mM EGTA containing recombinant GST-p110γ). […]

Row | Compound | IC50 [nM]
1 | Cc1nc(N)ncc1-c1ccc(Cl)c(S(=O)(=O)Nc2ccccc2)c1 [Example 1-1, 5-(2-Amino-4-methyl-pyrimidin-5-yl)-2-chloro-N-phenyl-benzenesulfonamide] | 4
2 | Cc1nc(N)ncc1-c1ccc(Cl)c(S(=O)(=O)N(C)C)c1 [Example 1-15, 5-(2-Amino-4-methyl-pyrimidin-5-yl)-2-chloro-N2N-dimethyl-benzenesulfonamide] | 239
3 | Cc1nc(N)ncc1-c1ccc(Cl)c(S(=O)(=O)N2CC(O)C2)c1 [Example 1-30, 1-[5-(2-Amino-4-methyl-pyrimidin-5-yl)-2-chloro-benzenesulfonyl]-azetidin-3-ol] | 135
4 | Cc1nc(N)ncc1-c1ccc(Cl)c(NS(=O)(=O)c2ccccc2)c1 [Example 1-50, N-[5-(2-Amino-4-methyl-pyrimidin-5-yl)-2-chloro-phenyl]-benzenesulfonamide] | 50
5 | Cc1nc(N)ncc1-c1ccnc(C(C)(C)C)n1 [Example 2-1, 2-tert-Butyl-4′-methyl-[4,5′]bipyrimidinyl-2′-ylamine] | 223
6 | Cc1nc(N)ncc1-c1ccc(Cl)c(S(=O)(=O)NC2CC2)c1 [Example 3-1, 5-(2-Amino-4-methyl-pyrimidin-5-yl)-2-chloro-N-cyclopropyl-benzenesulfonamide] | 219
7 | Cc1nc(N)ncc1-c1ccc(Cl)c(S(=O)(=O)N[C@H]2CC[C@@H](NC(=O)OC(C)(C)C)CC2)c1 [Example 3-17, cis-{4-[5-(2-Amino-4-methyl-pyrimidin-5-yl)-2-chloro-benzenesulfonylamino]-cyclohexyl}-carbamic acid tert-butyl ester] | 305
8 | Cc1nc(N)ncc1-c1ccc(Cl)c(NS(=O)(=O)c2cccc(Cl)c2)c1 [Example 3-35, N-[5-(2-Amino-4-methyl-pyrimidin-5-yl)-2-chloro-phenyl]-3-chloro-benzene sulfonamide] | 16
9 | Cc1nc(N)ncc1-c1ccc(C(F)(F)F)c(S(=O)(=O)N[C@@H]2CCC[C@@H]2O)c1 [Example 3-53, 5-(2-Amino-4-methyl-pyrimidin-5-yl)-N-((1R,2S)-2-hydroxy-cyclopentyl)-2-trifluoromethyl-benzenesulfonamide] | 108
